Reference: patent publication US20100197712A1, “USE OF DOPAMINE STABILIZERS” (priority 2007, published 2010)
Structures can show the parent of a compound that is named as a salt.

Assays:
active rats = assay: Video tracking: motor activity (velocity) of active rats; assay type: in vivo, Sprague-Dawley rats
Description: (§1) Prior to testing, the rats were housed for approximately 1 week with free access to food and water, in groups of four or five in Macrolon type III cages in the animal facility of the Sahlgrenska Academy at Göteborg University. The experiments were approved by the animal ethics committee in Göteborg.
(§2) OSU6162, ACR16, apomorphine and (−)-3-PPP were dissolved in 0.9% saline. A few grains of ascorbic acid were added to apomorphine solutions to prevent oxidation of the drug. Haloperidol and amisulpride were dissolved in a minimum amount of acetic acid and diluted with 5.5% glucose. The solutions were adjusted to pH 5-7 with sodium bicarbonate. Aripiprazole was dissolved in a minimum amount of heated acetic acid, diluted in warm 5.5% glucose and adjusted to pH 4-5. All drugs were administered intraperitoneally (i.p.) or subcutaneously (s.c.) in volumes of 5 ml/kg. Control treatments consisted of the appropriate vehicle administered in accordance with the drug treatment at issue.
(§3) The rats were housed in reverse daylight cycle and all handling of the animals was performed in dim light. Apomorphine was administered s.c. 5 minutes prior to testing, while all other drugs were injected i.p. or s.c. 30 minutes before testing. Single rats were introduced into rectangular arenas (l/w/h: 150×100×40 cm) illuminated indirectly by one infrared lamp (Neocom, South Korea). The rats' movements were recorded to digital (MPEG2) video files using an IR sensitive video camera (Panasonic WV-CPR480, lens: Panasonic LA-408C3) connected to a PC equipped with a MPEG-encoder (MVR1000^SX, Canopus Co.). […] Behavioural variables were extracted from the tracks in MatLab (The MathWorks, Inc., USA) with functions developed in this laboratory. Mean velocity was used to measure motor activity. Prior to calculation of velocity the tracks were subjected to a running mean filter, i.e. each sample was replaced by the mean of fifteen consecutive samples.
(§4) In several cases data from two or more experiments have been pooled. […] Confirmed outlying values (N=0-3 per experiment) were excluded from statistical analyses and graphical presentations. Data from the video tracking setting was analyzed with univariate general linear model (GLM). Following GLM analysis, comparisons versus the appropriate control groups were performed with Dunnet's post hoc test. […] Data obtained from activity boxes was analyzed with Kruskal-Wallis one-way analysis of variance by ranks. […] All statistical tests were two sided and p<0.05 was considered statistically significant.

habituated rats = assay: Motor activity of habituated rats in activity boxes; assay type: in vivo, Sprague-Dawley rats; settings: s.c.
Description: as §1, §2
Rats were housed in a normal daylight cycle and testing was performed during daytime. Animals were introduced into sound attenuated, illuminated activity boxes (1/w/h: 40×40×20 cm) and were allowed to habituate in the new environment for 65 minutes. During the following 5 minutes test drugs were injected s.c., after which the rats were returned to the boxes for another 60 minutes. Five by five rows of photocell beams at floor level allowed a computer based-system to register horizontal activity. Motor activity is presented as accumulated number of unrepeated beam breaks, i.e. several consecutive breakings of one beam is counted as one beam break. The software was set to register behaviour from the rat's first introduction into the arena until it was finally removed from the box, i.e. for 130 minutes. Activity is presented separately for t=0-30 min and t=30-60 min after injection.
as §4

rats = settings: small activity boxes; pre-treatment 30 minutes; dark hours, light turned off; preliminary
[1] = tested on: amphetamine-induced hyperactivity in rats; settings: Natesan et al., 2006; cited from earlier work
[2] = tested on: apomorphine induced hypomotility in rats; assay: Apomorphine induced hypomotility in rats (video tracking); assay type: in vivo, Sprague-Dawley rats
Description: FIG. 7. […] Test drugs were administered 30 minutes prior to registration. Motor activity was measured for 30 minutes as velocity in the video tracking setting. Statistical comparisons were made versus the apomorphine group with univariate general linear model, followed by Dunnet's post hoc test. *p<0.05; *p<0.01; ***p<0.001. FIG. 8.
as §3, §4

[3] = Hartter et al., 2003; cited from earlier work
[4] = whole 60 min registration / either time interval
[5] = i.p., 30 min prior to 30 min tracking
[6] = apomorphine 0.16 μmol/kg s.c., test drug i.p. 30 min prior, dose range per drug

Row | Compound | motor activity (accumulated unrepeated beam breaks) (habituated rats; [4]) | motor activity (velocity) (active rats; [5]) | effect on apomorphine-induced hypomotility [2, 6] | motor activity (accumulated unrepeated beam breaks) (habituated rats; t=0-30 min after injection) | motor activity (accumulated unrepeated beam breaks) (habituated rats; t=30-60 min after injection) | further results
1 | CCCN1CCC[C@@H](c2cccc(O)c2)C1 [(−)-3-PPP, S-(−)-3-[3-hydroxyphenyl]-1-propylpiperidine, reference compound] | did not have any statistically significant effects on motor activity in either time interval | – | – | – | – | motor activity (velocity) (active rats; s.c., 30 min prior to 30 min tracking, OSU6162 50-200 μmol, (−)-3-PPP 2.5 and 10 μmol/kg): marked and dose-dependent inhibition on motor activity, that was statistically significant at all doses tested
2 | CCCN1CCC(c2cccc(S(C)(=O)=O)c2)CC1 [ACR16, 4-(3-methanesulfonylphenyl)-1-propyl-piperidine] | caused an activation, although smaller than that of OSU6162 | dose-dependent and statistically significant reduction of motor activity | did not have any noticeable effect on apomorphine-induced hypoactivity | this effect increased dose-dependently | the effect appeared to peak at the dose 50 μmol/kg | motor activity (rats): marked reduction in motor activity; effect on amphetamine-induced hyperactivity [1]: reverse amphetamine-induced hyperactivity; effect on apomorphine-induced hypomotility ([2]; apomorphine 0.08 μmol/kg s.c., ACR16 i.p., higher dose): tended to inhibit activity further
3 | CCN1CCCC1CNC(=O)c1cc(S(=O)(=O)CC)c(N)cc1OC (stereo not shown) [amisulpride, reference compound] | Neither haloperidol (0.1-0.8 μmol/kg) nor amisulpride (33-300 μmol/kg) had any significant effects on motor activity | inhibited motor activity slightly at the highest dose tested | effectively counteracted apomorphine-induced hypoactivity | – | – | effect on apomorphine-induced hypomotility ([2]; amisulpride 270 μmol/kg, s.c., data not shown): a mere tendency towards reversal of apomorphine-induced hypoactivity; penetration of biological membranes [3]: poor penetration of biological membranes
4 | CN1CCc2cccc3c2[C@H]1Cc1ccc(O)c(O)c1-3 [apomorphine, R-(−)-Apomorphine hydrochloride hemihydrate] | – | – | – | – | – | locomotor activity (velocity) (active rats; apomorphine 0.04-0.16 μmol/kg s.c., 5 min prior to registration): dose dependent inhibiting effect on locomotor activity; motor activity (velocity) (active rats; apomorphine higher dose-interval 0.16-64 μmol/kg s.c.): motor activity began to return towards a level similar to that observed in controls; dose of maximal inhibition of motor activity (active rats; apomorphine s.c.): 0.16 µmol/kg
5 | O=C1CCc2ccc(OCCCCN3CCN(c4cccc(Cl)c4Cl)CC3)cc2N1 [aripiprazole, reference compound] | – | marked and dose-dependent inhibition on motor activity, that was statistically significant at all doses tested | – | dose-dependent inhibition during the first 30 minutes after injection, which was statistically significant at the highest dose | did not affect locomotor activity | –
6 | O=C(CCCN1CCC(O)(c2ccc(Cl)cc2)CC1)c1ccc(F)cc1 [haloperidol, reference compound] | Neither haloperidol (0.1-0.8 μmol/kg) nor amisulpride (33-300 μmol/kg) had any significant effects on motor activity | statistically significant inhibition at the highest dose | no statistically significant effects on motor activity | – | – | motor activity relative to control (active rats; haloperidol 0.8 μmol/kg, s.c.): approximately 7 % of control level
